Source: patent publication US20090238852A1, “METHODS FOR CONTROLLING INTRACELLULAR CALCIUM LEVELS ASSOCIATED WITH AN ISCHEMIC EVENT” (University of Utah Research Foundation, priority 2008, published 2009)

Columns and labels:
NCE = settings: cited from earlier work
[1] = tested on: rabbit ventricular myocytes; assay: Intracellular calcium [Ca^++]i in ventricular myocytes during paced metabolic ischemia (PMI), Fluo-3 flow cytometry; format: cell-based; settings: n = 7
Description: Consequently, it prevents intracellular sodium overload and subsequent reverse mode operation of the sodium-calcium exchanger. The effect of 2-O, 3-O desulfated heparin on accumulation of intracellular Ca^++ during ischemia was studied in an adult rabbit ventricular myocyte model previously reported (Boston D R, et al. J Pharmacol Exp Ther 285:716-723, 1998; Li F, et al. J Mol Cell Cardiol 33:2145-2155, 2001). Isolated cardiomyocytes have been validated as reliable models of ischemia (Diaz, R J, Wilson G J. Cardiovasc Res 70:286-296, 2006).
To produce the model, hearts are removed from albino rabbits (2-3 kg) anesthetized with sodium pentobarbital (65 mg/kg IV). The heart was immediately attached to an aorta cannula. Continuous perfusion of the coronary arteries at 37° C. by a pump (Masterflex, Cole-Parmer Instrument Co., Chicago, Ill.) was initiated at a perfusion pressure of 60 mm Hg. The heart was first perfused with nominally Ca^++-free modified Krebs-Ringer bicarbonate buffered solution (MKRBB, pH 7.40, containing in mmol/L: NaCl 126, KCl 4.4, […], MgCl2 1.0, HEPES 24, probenecid 0.5 and glucose 5) for 10 min, immediately followed by 15-25 min of recirculating perfusion with the same solutions containing 0.3 mg/ml collagenase (Type 2, Worthington Biochemical, Freehold, N.J.), 0.4 mg/mL hyaluronidase (Type-S, Sigma-Aldrich, St. Louis, Mo.) and 50 μmol/L CaCl2. The heart was then detached from the cannula, and the left ventricle was minced and transferred to a 50 mL conical tube with the same solution containing 0.24 mg/mL collagenase, 0.02 mg/mL trypsin and 50 μmol/L Ca^++ for a second digestion. The minced tissue was continuously agitated by gassing the solution with 5% CO2 and 95% O2 to help release isolated myocytes. The resulting supernatant was transferred to another conical tube with the same volume of the same solution containing 0.03 mg/mL of trypsin inhibitor (Sigma-Aldrich). The cell suspension was centrifuged at 5×g for 5 minutes. The supernatant was discarded and cells were resuspended in solution with a higher Ca^++ concentration (200 μmol/L) and incubated in a CO2 incubator (5% CO2, 28° C.) to settle down cells by gravity for 10 min. The same procedure was repeated twice to bring up the Ca^++ concentration slowly (500, then 1000 μmol/L). Calcium step-up solutions were made from MKRBB with 2% albumin, 50 μmol/L CaCl2 mixed with the appropriate amount of minimum essential medium (MEM, Gibco Laboratories, Grand Island, N.Y.). At the end of isolation, cells were filtered with a […] to avoid cell clumping during flow cytometry studies. The yield of rod-shaped viable myocytes averaged 50%. Cells were used for experiments within 4 hours after dissociation.
In these studies, intracellular calcium concentration [Ca^++]i was measured by flow cytometry. Measurement of isolated mouse and rabbit ventricular myocyte [Ca^2+]i and [Na^+]i by flow cytometry has been described (Zhang et al., J. Cardiovasc. Pharmacol. 51: 443-449 (2008); Li et al., J. Mol. Cell. Cardiol. 33: 2145-2155 (2001)). [Ca^++]i was measured with the Ca^++ sensitive fluorescent probe, Fluo 3-AM (Molecular Probes, Eugene, Oreg.), using a FACScan (Becton-Dickinson, MA). The cells were exposed to 4 μmol/L Fluo-3 AM for 30 min at 37° C. The cells were then separated into aliquots. After 40 min of wash, the cells were exposed to paced metabolic ischemia (MI) for 45 min at 37° C. Metabolic ischemia was accomplished by incubating cells in a glucose-free MKRBB solution (pH 7.40) containing 2 mmol/L sodium cyanide (NaCN) to impair mitochondrial and glycolytic generation of ATP. To reproduce the situation in the beating ischemic heart, during the period of metabolic ischemia, myocytes were placed in a 5-well chamber with equal volumes of myocyte suspensions from the same heart dissociation placed in each well. The chamber was water bathed to maintain temperature at 37° C. and bubbled with 5% CO2 in air to keep myocytes in suspension. […]

[2] = tested on: rabbit ventricular myocytes; assay: [Na^+]i in paced myocytes exposed to ATX, no metabolic inhibition; format: cell-based; settings: ATX 10 nM, HEPES + pacing; FIG. 9; n = 6
Experimental: In these studies, intracellular calcium concentration [Ca^++]i was measured by flow cytometry. Measurement of isolated mouse and rabbit ventricular myocyte [Ca^2+]i and [Na^+]i by flow cytometry has been described (Zhang et al., J. Cardiovasc. Pharmacol. 51: 443-449 (2008); Li et al., J. Mol. Cell. Cardiol. 33: 2145-2155 (2001)). [Ca^++]i was measured with the Ca^++ sensitive fluorescent probe, Fluo 3-AM (Molecular Probes, Eugene, Oreg.), using a FACScan (Becton-Dickinson, MA). The cells were exposed to 4 μmol/L Fluo-3 AM for 30 min at 37° C. The cells were then separated into aliquots. […] Metabolic ischemia was accomplished by incubating cells in a glucose-free MKRBB solution (pH 7.40) containing 2 mmol/L sodium cyanide (NaCN) to impair mitochondrial and glycolytic generation of ATP. To reproduce the situation in the beating ischemic heart, during the period of metabolic ischemia, myocytes were placed in a 5-well chamber with equal volumes of myocyte suspensions from the same heart dissociation placed in each well. The chamber was water bathed to maintain temperature at 37° C. and bubbled with 5% CO2 in air to keep myocytes in suspension. Each well was fitted with platinum sheet electrodes on both sides for field stimulation. One chamber was constructed with a glass coverslip bottom so that myocytes can be observed microscopically to assess capture threshold. Placing electrodes were connected in series to a constant current pulse generator that delivers a 0.2 ampere pulse at 0.5 Hz. […] Approximately 2×10^3 myocytes were analyzed to calculate average emission fluorescence intensity in each sample. […] Only those cells with low fluorescence intensity at 670 nm (PI-negative cells or viable cells) were included in the comparative analysis of [Ca^++]i. The sample [Ca^2+]i values were calculated by Mn^2+ quenching (Sugishita et al, 2001) and [Na^+]i values by comparison with a standard curve of varied [Na^+]i versus Na Green fluorescence. […] Results were expressed as means±SEM. […]

[3] = tested on: rabbit ventricular myocytes; assay: [Ca^++]i during paced aerobic metabolism (PH) with the Na^+ channel opener ATX; format: cell-based; settings: PH + ATX 20 nmol/L; n = 7; PH alone 406.8 ± 15.9
Experimental: In these studies, intracellular calcium concentration [Ca^++]i was measured by flow cytometry. Measurement of isolated mouse and rabbit ventricular myocyte [Ca^2+]i and [Na^+]i by flow cytometry has been described (Zhang et al., J. Cardiovasc. Pharmacol. 51: 443-449 (2008); Li et al., J. Mol. Cell. Cardiol. 33: 2145-2155 (2001)). [Ca^++]i was measured with the Ca^++ sensitive fluorescent probe, Fluo 3-AM (Molecular Probes, Eugene, Oreg.), using a FACScan (Becton-Dickinson, MA). The cells were exposed to 4 μmol/L Fluo-3 AM for 30 min at 37° C. The cells were then separated into aliquots. After 40 min of wash, the cells were exposed to paced metabolic ischemia (MI) for 45 min at 37° C. Metabolic ischemia was accomplished by incubating cells in a glucose-free MKRBB solution (pH 7.40) containing 2 mmol/L sodium cyanide (NaCN) to impair mitochondrial and glycolytic generation of ATP. To reproduce the situation in the beating ischemic heart, during the period of metabolic ischemia, myocytes were placed in a 5-well chamber with equal volumes of myocyte suspensions from the same heart dissociation placed in each well. The chamber was water bathed to maintain temperature at 37° C. and bubbled with 5% CO2 in air to keep myocytes in suspension. […] Approximately 2×10^3 myocytes were analyzed to calculate average emission fluorescence intensity in each sample. […] Only those cells with low fluorescence intensity at 670 nm (PI-negative cells or viable cells) were included in the comparative analysis of [Ca^++]i. The sample [Ca^2+]i values were calculated by Mn^2+ quenching (Sugishita et al, 2001) and [Na^+]i values by comparison with a standard curve of varied [Na^+]i versus Na Green fluorescence. […] Results were expressed as means±SEM. […]
To further examine the role of ODSH as a Na^+ inhibitor, additional experiments were performed in which the Na^+ channel opener amenone toxin II (ATX) was added to medium in a final concentration of 20 nmol/L to open the cardiac myocyte membrane Na^+ channel. […] Intracellular calcium concentration [Ca^++]i was monitored as earlier. […]

CS(=O)(=O)O.N=C(N)SCCc1ccc(OCc2ccc([N+](=O)[O-])cc2)cc1 [KBR, 2-[2-[4-(4-nitrobenzyloxy)phenyl]ethyl]isothiourea metanesulfonate, reference compound]
selectivity for reserve mode versus forward mode (NCE; Iwamoto 1996): 50 fold
[Ca^++]i ([1]; Table 6: PMI + KBR 10 μmol/L, PMI alone 985.5 ± 42.7): 666.5 ± 50.7 nM

CCOc1ccc(Oc2ccc(OCc3cc(F)ccc3F)cc2)c(N)c1 [SEA0400, 2-[4-[(2,5-difluorophenyl)methoxy]-phenoxy]-5-ethoxyaniline]
selectivity for the reverse versus forward mode of the NCE (NCE; Matsuda 2001): lacks selectivity for the reverse versus forward mode of the NCE

COc1ccccc1OCC(O)CN1CCN(CC(=O)Nc2c(C)cccc2C)CC1 (stereo not drawn) [ranolazine, reference compound]
effect on [Ca^2+]i during P-MI ([1]; each alone: ODSH 100 μg/ml, ranolazine 10 μM, FIG. 8): reduced [Ca^2+]i to a similar degree

ATX: Na^+ channel opener; selective activator of INa,L [reference compound]
effect on [Na^+]i in paced myocytes [2]: substantial increase in [Na^+]i
[Ca^++]i [3]: 529.1 ± 29.3 nM
